Reference: US6432974B1, “Pyrrolo-isoquinoline and tetra-hydropyrrolo-isoquinoline derivatives and their use as mediators of the 5-HT7 receptor” (Wyeth, priority 2000, dated 2002)
pKi: −log10 of the molar value. Where a name gives a salt, the structure may show the parent alone. Read-outs that look alike come from different tables or passages of the source.

Experiments:
human 5HT7 receptor = molecular target: T1, human 5HT7 receptor (Homo sapiens, UniProt P34969); assay: 5-HT7 Receptor Binding Assay ([3H]LSD displacement, CHO cell membranes)
T1 construct: purchased BioSignal Drug Discovery Technology, Montreal, Canada; host or cells: CHO cells (stably transfected), membranes
T1 sequence (P34969 whole entry): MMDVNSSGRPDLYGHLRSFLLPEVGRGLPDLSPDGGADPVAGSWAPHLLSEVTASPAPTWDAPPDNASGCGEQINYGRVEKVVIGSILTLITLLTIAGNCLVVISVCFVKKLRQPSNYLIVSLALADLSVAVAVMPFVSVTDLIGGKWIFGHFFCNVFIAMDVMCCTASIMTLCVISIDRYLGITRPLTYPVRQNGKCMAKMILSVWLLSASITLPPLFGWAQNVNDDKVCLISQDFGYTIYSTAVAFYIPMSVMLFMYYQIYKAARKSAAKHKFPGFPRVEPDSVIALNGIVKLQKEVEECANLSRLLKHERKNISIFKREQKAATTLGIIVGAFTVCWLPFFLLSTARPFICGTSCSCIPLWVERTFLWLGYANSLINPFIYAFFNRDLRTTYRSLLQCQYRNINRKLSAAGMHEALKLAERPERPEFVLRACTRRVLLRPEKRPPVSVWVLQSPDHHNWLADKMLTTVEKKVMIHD

Structure (SMILES) | melting point | further results
NCCc1c[nH]c2cc3c(cc12)C(=O)NCC3 [Compound 1, 3-(2-Amino-ethyl)-1,6,7,8-tetrahydro-pyrrolo[2,3-g]isoquinolin-5-one] | – | pKi (human 5HT7 receptor): 7.85
NCCc1c[nH]c2cc3c(cc12)C(=O)N(Cc1ccccc1)CC3 (as salt: HCl) (hydrate or solvate) | 262 to 263 °C | –
CN1CCN(C2=Nc3ccccc3Oc3ccc(Cl)cc32)CC1 [Loxapine, reference compound] | – | pKi (human 5HT7 receptor; displacement of [3H]LSD, cloned human 5-HT7 receptor membranes from CHO cells, value with 95% confidence interval, read-out: 5-HT7 binding Ki): 7.37
NCCc1c[nH]c2cc3c(cc12)C(=O)NCC3 (as salt: salt) (hydrate or solvate) [Compound 1, 3-(2-Amino-ethyl)-1,6,7,8-tetrahydro-pyrrolo[2,3-g]isoquinolin-5-one] | 82 to 86 °C | –
